# Test results as given in US5278326A, “Substituted beta-ketoamide ACAT inhibitors” (Warner-Lambert Company, priority 1991, dated 1994).
# Target: T1, acyl-CoA: cholesterol acyltransferase (ACAT) (Oryctolagus cuniculus, UniProt G1SFD9)
# T1 construct: in a tissue preparation containing rabbit intestinal microsomes; from tissue; host or cells: rabbit intestinal microsomes
# T1 sequence (G1SFD9 1-524): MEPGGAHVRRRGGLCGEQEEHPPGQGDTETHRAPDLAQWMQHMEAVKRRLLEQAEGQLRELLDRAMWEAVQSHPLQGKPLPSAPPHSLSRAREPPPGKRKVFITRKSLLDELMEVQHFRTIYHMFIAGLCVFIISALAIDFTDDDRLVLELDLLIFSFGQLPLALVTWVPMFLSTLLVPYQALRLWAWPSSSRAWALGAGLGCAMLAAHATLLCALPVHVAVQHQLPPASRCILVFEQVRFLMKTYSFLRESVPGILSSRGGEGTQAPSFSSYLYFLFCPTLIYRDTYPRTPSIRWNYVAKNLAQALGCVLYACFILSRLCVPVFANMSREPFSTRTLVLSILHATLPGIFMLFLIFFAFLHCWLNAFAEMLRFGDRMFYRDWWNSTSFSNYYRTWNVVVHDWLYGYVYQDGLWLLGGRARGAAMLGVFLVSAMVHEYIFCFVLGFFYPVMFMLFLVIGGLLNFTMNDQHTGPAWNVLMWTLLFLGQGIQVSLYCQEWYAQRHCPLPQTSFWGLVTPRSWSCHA
# Test: in vitro inhibition of ACAT (radiolabeled cholesterol oleate formed from radiolabeled oleic acid, rabbit intestinal microsomes)
# Assay type: biochemical
# Conditions: tissue preparation containing rabbit intestinal microsomes, read-out: IC50 (concentration of test compound required to inhibit the activity of the enzyme by 50%)
# Description: The ability of representative compounds of the present invention to inhibit ACAT was measured using an in vitro test more fully described in F. J. Field and R. G. Salone, Biochemica et Biophysica 712:557-570 (1982). The test assesses the ability of a test compound to inhibit the acylation of cholesterol by oleic acid by measuring the amount of radiolabeled cholesterol oleate formed from radiolabeled oleic acid in a tissue preparation containing rabbit intestinal microsomes.
# The data appear in Table 1 where they are expressed as IC50 values; i.e., the concentration of test compound required to inhibit the activity of the enzyme by 50%.
row,IC50 [nM],SMILES
1,57,"CC(C)c1cccc(C(C)C)c1NC(=O)CC(=O)CCCCCCCCCCCOC1CCCCO1 (centres unmarked) [Example 6, N-[2,6-bis(1-methylethyl)phenyl]-3-oxo-14-[(tetrahydro-2H-pyran-2-yl)oxy]-tetradecanamide]"
2,230,"CC(C)c1cccc(C(C)C)c1NC(=O)CC(=O)CCCCCCCCCCCO [Example 7, N-[2,6-bis(1-methylethyl)phenyl]-14-hydroxy-3-oxo-tetradecanamide]"
3,> 1000,"CCCCCCCCCCCC(=O)C(C)(C)C(=O)N(C)c1c(OC)cc(OC)cc1OC [Example 10, N,2,2-trimethyl-3-oxo-N-(2,4,6-trimethoxyphenyl)-tetradecanamide]"
4,> 1000,"CCCCCCCCNC(=O)CC(=O)c1ccc(F)cc1F [Example 12, 2,4-difluoro-N-octyl-β-oxo-benzenepropanamide]"
5,> 1000,"CCCCCCCCNC(=O)CC(=O)c1c2ccccc2cc2ccccc12 [Example 13, N-octyl-β-oxo-9-anthracenepropanamide]"
